Assay results from article PMC9198979, “Polymeric Nanotubes as Drug Delivery Vectors—Comparison of Covalently and Supramolecularly Assembled Constructs” (Biomacromolecules, 2022).

Assay: In vivo pharmacokinetics of 14C-radiolabelled compounds after IV dosing (plasma and urine radioactivity)
Parameters: species or system male Sprague Dawley rats
Settings: rat
Experimental: All animal experimental protocols were approved by the Monash Institute of Pharmaceutical Sciences Animal Ethics Committee, Monash University, Parkville, VIC, Australia. Male Sprague Dawley rats (250–350 g) were used. Animals were maintained on a 12 h light/dark cycle at all times and after transport were acclimatized for 7 days at the facility prior to in vivo studies. […] Urine samples were collected at the 24 h timepoint, and a 50 μL of the sample was transferred to a vial, 4 mL of Ultima Gold added and counted using the scintillator. A blank urine sample prior to dosage was also collected and analyzed to account for background radiation. The pharmacokinetic parameters were determined using non-compartmental analysis with Excel software using the PK Solver add-in (NCA IV Bolus model). […] AUC0-t, elimination half-life (t1/2), volume of distribution at steady state (Vd ss), and clearance rate (Cl) were calculated with this approach. For the linear compound, the 1440 min timepoint was omitted from parameter fitting due to the very low radioactivity for this measurement. The ^14C-radiolabeled compounds were injected intravenously into male Sprague-Dawley rats at a nominal dose of radioactivity (1 μCi, varying 0.82–2.78 mg dose of the sample) and blood samples taken over the course of 24 h to monitor the plasma concentration time profiles.

| Cl (clearance rate) | Substance |
| --- | --- |
| 0.342 ± 0.102 mL h^–1 | (PNAM50-co-NAS2.5)140 [BB] |
| 16.9 ± 0.91 mL h^–1 | PNAM100-co-NAS5 [linear] |
